Results taken from patent publication US12319699B2, “L-proline sulfonamide derivatives comprising pyrazolo[4,3-e]tetrazolo[4,5-b][1,2,4]triazine system, method of manufacturing thereof, uses thereof and pharmaceutical composition comprising the same” (UNIWERSYTET MEDYCZNY W BIALYMSTOKU, priority 2018, dated 2025).

Experiments:
[1] = system: HT-29 human colorectal cancer cells; experiment: DNA biosynthesis, [3H]-thymidine incorporation; type: cell-based; conditions: HT-29, 24-hour incubation
Description: (§1) HT-29 human colorectal cancer cells (ATCC HTB-38, Manassas, VA, USA) were cultured in McCoy's 5A medium supplemented with 10% fetal bovine serum (FBS), 2 mM glutamine, 50 U/ml penicillin, 50 μg/ml of streptomycin at 37° C., in atmosphere containing 5% CO2. Subsequently, the cells were counted in a hemocytometer and were transferred in the amount of 1×10^6 cells per well in 1 ml of culture medium from Costar flasks (Sigma, USA) to Nunc 6-well plates (Wiesbaden, Germany). The cells were transferred using calcium-free phosphate buffer with the addition of 0.05% trypsin and 0.02% EDTA. […] Within the subsequent 24 hours the cells covered at least 80% of the surface of each plate well. The cells prepared in this manner were incubated with the examined compounds for 24 hours and then used for further experiments.
(§2) The effect of the examined compounds according to the invention on the process of DNA biosynthesis was assessed by measuring incorporation of [^3H]-thymidine into DNA of the examined cells. […] After 5 minutes, the cell lysate obtained was transferred to scintillation vials containing 2 ml of scintillation fluid and radioactivity was measured. […] The values from the examined samples were expressed as percentage of the control value. The significance level p was determined by the nonparametric Mann-Whitney U test by means of SigmaStat software. […]

[2] = system: HT-29 human colorectal cancer cells; experiment: Cytotoxicity, MTT assay (Carmichael's method), cell survival; type: cell-based; conditions: HT-29, 24-hour incubation
Description: as §1, with “The cells prepared in this manner were incubated with the examined compounds for 24 hours and then used for further experiments.” left out
(§3) Cytotoxicity of the examined compounds according to the invention was measured by Carmichael's method (Carmichael J et al, Cancer Res., 1987, 47:943-946) and cell viability was determined using the tetrazolium salt (MT) in MTT assay. […] In a cell lysate prepared in such manner absorbance at 630 nm was measured. The result of absorbance obtained in the control cell cultures was assumed to be 100%. The viability of cells incubated in the presence of the examined compounds was expressed as percentage of the control values. The significance level p was determined by the nonparametric Mann-Whitney U test by means of SigmaStat software. […]

[3] = system: DLD-1 colorectal cancer cells; experiment: Decrease in mitochondrial membrane potential, JC-1 MitoScreen flow cytometry; type: cell-based, human; conditions: 24 hours
Description: (§4) DLD-1 human colorectal cancer cells (ATCC CCL-221, Manassas, VA, USA) were grown in DMEM (Dulbecco's Modified Eagle's Medium) supplemented with 10% fetal bovine serum (FBS), 2 mM glutamine, 50 U/ml penicillin, 50 μg/ml streptomycin at 37° C., in atmosphere containing 5% of CO2. Then the cells were counted in a hemocytometer and transferred in the amount of 1×10^6 cells per well in 1 ml of culture medium from Costar flasks (Sigma, USA) to Nunc 6-well plates (Wiesbaden, Germany). The cells were transferred using calcium-free phosphate buffer with the addition of 0.05% trypsin and 0.02% EDTA. […] Within the subsequent 24 hours the cells covered at least 80% of the surface of each plate well. The cells prepared in this manner were incubated with the examined compounds for 24 hours and then used for further experiments.
(§5) For the assessment of changes in mitochondrial potential JC-1 MitoScreen kit (BD Biosciences. USA) was used. DLD-1 and HT-29 cancer cells covering about 80% of the plate surface were incubated with the examined compounds according to the invention at specific concentrations in an incubator at 37° C. in 5% CO2 atmosphere for 24 hours. Both examined compounds according to the invention were used at a concentration of 1.5 μM and 3.0 μM. After the incubation period, the medium was removed, the buffer included in the kit was added and the cells after washing two times were suspended in a mixture of JC-1 dye (5,5′,6,6′-tetrachloro-1,1′,3,3′-tetraethylbenzimidazol carbocyanine iodide) with a buffer at a concentration of 10 μg/ml. Subsequently, the samples were incubated in darkness for 15 minutes, washed with PBS solution and subjected to immediate analysis with the use of BD FacsCanto II flow cytometer; the results were assessed with the use of BD FacsDiva software. In live intact cells JC-1 dye accumulates in mitochondria and forms orange fluorescing aggregates. A decrease in mitochondrial potential ΔΨm is characterized by disintegration of these aggregates and green fluorescence.

[4] = system: DLD-1 human colorectal cancer cells; experiment: Cytotoxicity, MTT assay (Carmichael's method), cell survival; type: cell-based; conditions: DLD-1, 24-hour incubation
Description: as §4, with “The cells prepared in this manner were incubated with the examined compounds for 24 hours and then used for further experiments.” left out
as §3

[5] = system: DLD-1 human colorectal cancer cells; experiment: DNA biosynthesis, [3H]-thymidine incorporation; type: cell-based; conditions: DLD-1, 24-hour incubation
Description: as §4, §2

[6] = system: HT-29 colorectal cancer cells; experiment: Decrease in mitochondrial membrane potential, JC-1 MitoScreen flow cytometry; type: cell-based, human; conditions: 24 hours
Description: as §1, §5

| Structure (SMILES) | IC50 [1] [µM] | IC50 [2] [µM] | decrease of ΔΨm, % of the cell population ([3]; DLD-1, 1.5 μM) [%] | decrease of ΔΨm, % of the cell population ([3]; DLD-1, 3.0 μM) [%] | IC50 [4] [µM] | IC50 [5] [µM] | decrease of ΔΨm, % of the cell population ([6]; HT-29, 1.5 μM) [%] | decrease of ΔΨm, % of the cell population ([6]; HT-29, 3.0 μM) [%] |
| --- | --- | --- | --- | --- | --- | --- | --- | --- |
| COC(=O)C1CCCN1S(=O)(=O)c1ccc(-n2nc(C)c3nc4nnnn4nc32)cc1 (stereo not shown) [Compound of Formula 2, Methyl 1-[4-(7-methyl-5H-pyrazol[4,3-e]tetrazolo[4,5-b][1,2,4]triazyn-5-yl)phenylsulfonyl]pyrrolidine-2-carboxylate] | 3.62 ± 0.02 | 1.73 ± 0.03 | 48.9 | 63.8 | 1.1 ± 0.01 | 0.56 ± 0.01 | 25.7 | 79.7 |
| COC(=O)C1CC(O)CN1S(=O)(=O)c1ccc(-n2nc(C)c3nc4nnnn4nc32)cc1 (stereo not shown) [Compound of Formula 3, Methyl 4-hydroxy-1-[4-(7-methyl-5H-pyrazolo[4,3-e]tetrazolo[4,5-b][1,2,4]triazyn-5-yl)phenylsulfonyl]pyrrolidine-2-carboxylate] | 2.3 ± 0.02 | 3.13 ± 0.02 | 49.5 | 71.3 | 3.1 ± 0.02 | 1.55 ± 0.02 | 26.9 | 81.0 |
